Experiments:
[1] = test system: retinal progenitor cells differentiated from hESCs (differentiation into photoreceptor cells); test: Immunochemical staining: positive rates of retinal cell markers after differentiation with substitutes for Wnt3a and Shh; assay type: cell-based, human; conditions: mean, sample size = 3
Experimental: The eye field precursors (floating aggregates) were cultured in 8-well poly-D-lysine/laminin-coated slides (BD Biosciences, Bedford, Mass.) under the same conditions that were used for differentiation into the retinal progenitor cells, the neural retinal progenitor cells, the photoreceptor cell precursors and the photoreceptor cells.
After being blocked for 90 min, the slides in each differentiation step were incubated overnight at 4° C. with the following antibodies specific for cells of each differentiation step: rabbit-Blue-opsin (1:500, Chemicon), sheep-Chx10 (1:100, Chemicon), rabbit-Crx (1:200, Santa Cruz Biotechnology, Santa Cruz, Calif., USA), rabbit-GFAP (1:200, Invitrogen), mouse-human specific mitochondria (1:50, Chemicon), rabbit-human specific mitochondria (1:200, Chemicon), mouse-Islet1 (1:10, Developmental Studies Hydroma Bank, DSHB; Iowa City, Iowa, USA), mouse-Ki67 (1:100, Vector Laboratories, Peterborough, England), mouse-Mitf (1:1,000, abcam, Cambridge, Mass., USA), mouse-nestin (1:250, BD Sciences), rabbit-neurofilament-200 (1:1,000, Sigma-Aldrich), rabbit-Otx2 (1:100, abcam), rabbit-Pax2 (1:250, abcam), mouse-Pax6 (1:2, DSHB), mouse-peripherin2 (1:500, GenScript, Piscataway, N.J., USA), rabbit-Rax (1:250, abcam), rabbit-recoverin (1:1,000, Chemicon), retinal pigment epithelium 65 (RPE65, 1:100, Chemicon), rabbit-rhodopsin (1:500, Sigma-Aldrich), mouse-rhodopsin (1:500, Ret-P1, Lab Vision, Fremont, Calif., USA), mouse-rhodopsin (1:2,000, Ret-P1, Sigma-Aldrich), mouse-rom1 (1:50, ABR-Affinity Bioreagents, Golden, Colo., USA), rabbit-PDE6 beta (1:100, abcam), rabbit-phosducin (1:500, Santa Cruz Biotechnology), mouse-PKC-alpha (1:500, Sigma-Aldrich), mouse-Prox1 (1:2,000, Chemicon), mouse-Sox2 (1:250, R&D Systems), rabbit-synaptophysin (1:2,000, Santa Cruz Biotechnology), and rabbit-ZO-1 (1:100, Zymed-Invitrogen).
The cells cultured on the slides in each step were washed three times for 5 min with PBS and incubated at room temperature for 2 hrs with species-specific secondary antibody conjugated with Cy3 (1:800, Jackson Immunoresearch Laboratory) or Alexa488 (1:500, Invitrogen). A standard material suitable for the primary and the secondary antibody was used to examine non-specific staining or interaction between the antibodies. Afterwards, the cells were washed three times for 5 min with PBS, counterstained with DAPI (4′,6-diamidino-2 phenylindole) and mounted in Vectashield (Vector Laboratories), followed by visualization under an epifluorescence microscope (Nikon Eclipse, E800, Tokyo, Japan) and a confocal microscope (Leica, Leica Microsystems Inc, Bannockburn, Ill., USA or Zeiss LSM510, Carl Zeiss, Inc, Thornwood, N.Y., USA).
500 cells were counted from 20 microscopic fields randomly selected at 200 magnification and evaluated for positive responses to each antibody. Positive responses to antibodies were determined after at least three evaluations. […] All data were represented as mean standard error of the mean (S.E.M) with a statistical significance of p<0.05.

[2] = test system: hESC-derived retinal progenitor cells / neural retinal progenitor cells; test: Immunochemical staining: marker positive rates during stepwise differentiation (Examples 4 to 6); assay type: cell-based, human; conditions: 50 ng/ml Wnt3a for 5 days (day 18); 12.8% before addition
Experimental: The retinal progenitor cells generated in Example 3 were cultured in a medium for inducing differentiation into neural retinal progenitor cells [DMEM/F12 (Invitrogen), 1 mM L-glutamine (Invitrogen), 0.1 mM nonessential amino acids (Invitrogen), 0.1 mM mercaptoethanol (Sigma-Aldrich), 1% B27 supplement (Invitrogen), 1% N2 supplement (Invitrogen), 10 ng/ml noggin, 10 ng/ml IGF-1, 5 ng/ml FGF2, 50 ng/ml recombinant Wnt3a (R&D Systems)] supplied thereto for 5 days, thus giving neural retinal progenitor cells (FIG. 1).
The neural retinal progenitor cells generated in Example 4 were induced to differentiate into photoreceptor cell precursors by supplying a medium [DMEM/F12 (Invitrogen), 1 mM L-glutamine (Invitrogen), 0.1 mM nonessential amino acids (Invitrogen), 0.1 mM mercaptoethanol (Sigma-Aldrich), 1% B27 supplement (Invitrogen), 1% N2 supplement (Invitrogen), 10 ng/ml IGF-1, 50 ng/ml Wnt3a, and 250 ng/ml recombinant Shh (Sonic Hedgehog amino terminal peptide, Shh, R&D Systems)] for 3 days. Noggin and FGF2, both used in the previous step, were excluded from the medium (FIG. 1).
The differentiation of the cells obtained in Examples 3 to 6 was examined using an immunochemical staining method as follows. […]

## Norrin: recombinant Norrin (R&D Systems), activator of the Wnt pathway that binds to Frizzled4 receptor
[1]; Wnt3a substitute at 50 ng/ml
  Positive rate of Crx: 39.3%
  Positive rate of Ki67: 42.2%
  Positive rate of Rom: 69.5%
  Positive rate of b-opsin: 71.1%
  Positive rate of peripherin2: 24.9%
  Positive rate of recoverin: 85.0%
  Positive rate of rhodopsin: 82.9%

## O=C1NC(=O)C(c2ccccc2[N+](=O)[O-])=C1Nc1ccc(O)c(Cl)c1 [SB415286]
[1]; Wnt3a substitute at 30 uM
  Positive rate of Crx: 53.7%
  Positive rate of Ki67: 13.3%
  Positive rate of Pax6: 89.1%
  Positive rate of Rom: 59.5%
  Positive rate of b-opsin: 53.7%
  Positive rate of peripherin2: 9.1%
  Positive rate of recoverin: 70.0%
  Positive rate of rhodopsin: 69.3%

## O=C1Nc2cc(Br)ccc2/C1=C1/Nc2ccccc2/C1=N\O [BIO, 6-bromoindirubin-3′ oxime]
[1]; Wnt3a substitute at 2 uM
  Positive rate of Crx: 65.8%
  Positive rate of Ki67: 17.2%
  Positive rate of Pax6: 92.8%
  Positive rate of Rom: 60.3%
  Positive rate of b-opsin: 77.5%
  Positive rate of peripherin2: 33.9%
  Positive rate of recoverin: 77.1%
  Positive rate of rhodopsin: 71.5%

## [Cl-].[Li+] [LiCl]
[1]; Wnt3a substitute at 2.5 mM
  Positive rate of recoverin: 64.1%
  Positive rate of rhodopsin: 56.2%
[1]; Wnt3a substitute at 5 mM
  Positive rate of Crx: 5.0%
  Positive rate of Ki67: 33.3%
  Positive rate of peripherin2: 1.5%
  Positive rate of recoverin: 78.9%
  Positive rate of rhodopsin: 68.5%

B1: Wnt3a: recombinant Wnt3a (R&D Systems), Wnt signaling pathway activator (protein, UniProt P56704 19-352, looked up)
Protein Wnt-3a: SYPIWWSLAVGPQYSSLGSQPILCASIPGLVPKQLRFCRNYVEIMPSVAEGIKIGIQECQHQFRGRRWNCTTVHDSLAIFGPVLDKATRESAFVHAIASAGVAFAVTRSCAEGTAAICGCSSRHQGSPGKGWKWGGCSEDIEFGGMVSREFADARENRPDARSAMNRHNNEAGRQAIASHMHLKCKCHGLSGSCEVKTCWWSQPDFRAIGDFLKDKYDSASEMVVEKHRESRGWVETLRPRYTYFKVPTERDLVYYEASPNFCEPNPETGSFGTRDRTCNVSSHGIDGCDLLCCGRGHNARAERRREKCRCVFHWCCYVSCQECTRVYDVHTCK
[2]
  Positive rate of the photoreceptor cell precursor marker Crx after Wnt3a addition: 80.1%

B2: Wnt5A: recombinant Wnt5A (R&D Systems), Wnt signaling pathway activator used instead of Wnt3a (protein, UniProt P41221 62-380, looked up)
Protein Wnt-5a: IIGAQPLCSQLAGLSQGQKKLCHLYQDHMQYIGEGAKTGIKECQYQFRHRRWNCSTVDNTSVFGRVMQIGSRETAFTYAVSAAGVVNAMSRACREGELSTCGCSRAARPKDLPRDWLWGGCGDNIDYGYRFAKEFVDARERERIHAKGSYESARILMNLHNNEAGRRTVYNLADVACKCHGVSGSCSLKTCWLQLADFRKVGDALKEKYDSAAAMRLNSRGKLVQVNSRFNSPTTQDLVYIDPSPDYCVRNESTGSLGTQGRLCNKTSEGMDGCELMCCGRGYDQFKTVQTERCHCKFHWCCYVKCKKCTEIVDQFVCK
[1]; Wnt3a substitute at 50 ng/ml
  Positive rate of Crx: 67.3%
  Positive rate of Ki67: 41.3%
  Positive rate of Rom: 58.8%
  Positive rate of b-opsin: 55.0%
  Positive rate of peripherin2: 20.7%
  Positive rate of recoverin: 61.0%
  Positive rate of rhodopsin: 59.5%
[1]; Wnt3a substitute at 100 ng/ml
  Positive rate of peripherin2: 14.2%
  Positive rate of recoverin: 61.6%
  Positive rate of rhodopsin: 56.1%

B3: Wntl: recombinant Wnt1 (PeproTech), Wnt signaling pathway activator used instead of Wnt3a (protein, UniProt P04628 28-370, looked up)
Proto-oncogene Wnt-1: ANSSGRWWGIVNVASSTNLLTDSKSLQLVLEPSLQLLSRKQRRLIRQNPGILHSVSGGLQSAVRECKWQFRNRRWNCPTAPGPHLFGKIVNRGCRETAFIFAITSAGVTHSVARSCSEGSIESCTCDYRRRGPGGPDWHWGGCSDNIDFGRLFGREFVDSGEKGRDLRFLMNLHNNEAGRTTVFSEMRQECKCHGMSGSCTVRTCWMRLPTLRAVGDVLRDRFDGASRVLYGNRGSNRASRAELLRLEPEDPAHKPPSPHDLVYFEKSPNFCTYSGRLGTAGTAGRACNSSSPALDGCELLCCGRGHRTRTQRVTERCNCTFHWCCHVSCRNCTHTRVLHECL
[1]; Wnt3a substitute at 50 ng/ml
  Positive rate of Crx: 60.3%
  Positive rate of Ki67: 23.8%
  Positive rate of Rom: 55.9%
  Positive rate of b-opsin: 61.6%
  Positive rate of peripherin2: 3.8%
  Positive rate of recoverin: 70.9%
  Positive rate of rhodopsin: 66.2%

B4: Wntll: recombinant Wnt11 (R&D Systems), Wnt signaling pathway activator used instead of Wnt3a (protein, UniProt O96014 25-354, looked up)
Protein Wnt-11: IKWLALSKTPSALALNQTQHCKQLEGLVSAQVQLCRSNLELMHTVVHAAREVMKACRRAFADMRWNCSSIELAPNYLLDLERGTRESAFVYALSAAAISHAIARACTSGDLPGCSCGPVPGEPPGPGNRWGGCADNLSYGLLMGAKFSDAPMKVKKTGSQANKLMRLHNSEVGRQALRASLEMKCKCHGVSGSCSIRTCWKGLQELQDVAADLKTRYLSATKVVHRPMGTRKHLVPKDLDIRPVKDSELVYLQSSPDFCMKNEKVGSHGTQDRQCNKTSNGSDSCDLMCCGRGYNPYTDRVVERCHCKYHWCCYVTCRRCERTVERYVCK
[1]; Wnt3a substitute at 50 ng/ml
  Positive rate of Crx: 65.9%
  Positive rate of Ki67: 40.1%
  Positive rate of Rom: 50.2%
  Positive rate of b-opsin: 30.6%
  Positive rate of peripherin2: 0.5%
  Positive rate of recoverin: 65.3%
  Positive rate of rhodopsin: 51.8%
[1]; Wnt3a substitute at 100 ng/ml
  Positive rate of peripherin2: 10.7%
  Positive rate of recoverin: 61.8%
  Positive rate of rhodopsin: 59.1%

— US9359592B2, “Method for differentiation into retinal cells from stem cells” (SNU R&DB Foundation, priority 2009, dated 2016)
